Results as given in ChEMBL document CHEMBL5576040, “Dipeptide-catalysed Michael reaction under physiological conditions: Examination of potential bioorthogonality” (Bioorg Med Chem, 2024).

System: A2780
Experiment: Anticancer activity against human A2780 cells assessed as inhibition of cell growth measured after 48 hrs by MTT assay
Format: functional, cell-based
Conditions: A2780, 48 h

O=C1CCCC[C@H]1[C@H](c1ccccc1)C(F)[N+](=O)[O-] (some centres not stated)
IC50: 89 µM

O=C1CCCC[C@H]1[C@@H](C[N+](=O)[O-])c1ccccc1
IC50: > 100 µM
